The values that follow come from patent publication US20240101584A1, “TARGETED DELIVERY OF 1,2,4,5 TETRAOXANE COMPOUNDS AND THEIR USES” (Westlake University, priority 2021, published 2024).

In one assay the test system is MDA-MB-231 cells. The assay can be described thus: MTT viability assay, MDA-MB-231 cells. Format: cell-based. The conditions noted are these: for IC50: Homo sapiens. The protocol:
(§1) The anticancer activities of the exemplary compounds listed in Example 1 were tested against human cervix Hela cells, mammary breast cancer MDA-MB-231 cells, human hepatocellular HepG2 cells, human colorectal HCT116 cells, mammary ductal T47D cells, non-cancerous NIH3T3 cells, dog's kidney MDCK cells, and mouse brain bEnd.3 cells, respectively.

Another assay relates to NIH3T3 cells. Nature of the assay: MTT viability assay, non-cancerous NIH3T3 cells. The class given is cell-based. As to conditions: Mus musculus, NIH3T3. As for the experimental part:
as §1
On the technique in general: Formazan colour is commonly taken as a measure of viable cells.

In a further assay the test system is Hela cells. The assay can be described thus: MTT viability assay, Hela cells. Format: cell-based, human. The conditions noted are these: Homo sapiens, HeLa, 48 h incubation, mean, n = 3, read-out: IC50 against Hela cells. As for the experimental part:
as §1

In the next assay the test system is T47D cells. The assay can be described thus: MTT viability assay, T47D cells. Format: cell-based. The conditions noted are these: for IC50: Homo sapiens, T47D. The protocol:
as §1

The subject of the next assay is MDCK cells. The assay can be described thus: MTT viability assay, MDCK cells. Format: cell-based, dog. The conditions noted are these: Canis lupus familiaris, MDCK, 48 h incubation, mean, n = 3, read-out: IC50 against MDCK cells. The protocol: as §1
The subject of another assay is HCT116 cells. The assay can be described thus: MTT viability assay, HCT116 cells. The class given is cell-based, human. The conditions noted are these: for IC50: Homo sapiens, HCT-116. The protocol: as §1
Where [1] appears, read: MDA-MB-231, 48 h, MTT, 48 h incubation, mean, n = 3, read-out: IC50 against MDA-MB-231 cells.
The mark [2] stands for this setting: MTT, 48 h incubation, mean, n = 3, read-out: IC50 against NIH3T3 cells.
Where [3] appears, read: MDA-MB-231, Table 12b, read-out: IC50 MDA-MB-231.
[4] abbreviates: Table 12b, read-out: IC50 NIH3T3.
[5] abbreviates: MTT, 48 h incubation, mean, n = 3, read-out: IC50 against HCT116 cells.
Where [6] appears, read: Table 12b, read-out: IC50 HCT116.

Where two headings read alike, the source gives them in different places. Some results are limits rather than exact numbers.

As a reminder, the IC50 is the concentration at which inhibition is half-maximal. As to `C#CCCNC(=O)OCC(C)(C)C1CCC2(CC1)OOC1(CCC(OC(=O)NCCC[P+](c3ccccc3)(c3ccccc3)c3ccccc3)CC1)OO2` [Compound alk-L-37b, (3-((((12-(1-((but-3-yn-1-ylcarbamoyl)oxy)-2-methylpropan-2-yl)-7,8,15,16-tetraoxadispiro[5.2.59.26]hexadecan-3-yl)oxy)carbonyl)amino)propyl)triphenylphosphonium bromide], the half-inhibitory concentration (IC50) in the assay with MDA-MB-231 cells (setting [1]) was 2.1 µM; with NIH3T3 cells (setting [2]) it was 12.9 µM.
On to `CC1=CC(=O)C(C(C)(C)CC(=O)N2CCN(C(=O)OC3CCC4(CC3)OOC3(CCC(C(C)(C)C)CC3)OO4)CC2)=C(C)C1=O` (stereo not drawn) [Compound 37g, 12-(tert-butyl)-7,8,15,16-tetraoxadispiro[5.2.59.26]hexadecan-3-yl 4-(3-(2,4-dimethyl-3,6-dioxocyclohexa-1,4-dien-1-yl)-3-methylbutanoyl)piperazine-1-carboxylate], for which the IC50 is 11 µM in the assay on MDA-MB-231 cells (setting [1]); 11 ± 0.9 µM in the assay on MDA-MB-231 cells (setting [3]); 11.5 µM with Hela cells; 3.1 µM with T47D cells (MTT, 48 h incubation, mean, n = 3, read-out: IC50 against T47D cells); 3.1 ± 0.7 µM in the assay on T47D cells (Table 12b, read-out: IC50 T47D); 26.6 µM in the assay with NIH3T3 cells (setting [2]). The IC50 with NIH3T3 cells (setting [4]) stood at 26.6 ± 2.6 µM; with MDCK cells, 22.3 µM. In addition, in the assay on MDA-MB-231 cells (Table 12b, value in bracket), the “selectivity index (IC50 of NIH3T3 divided by IC50 on MDA-MB-231)” value is on record as “(>2.4)”. Besides, in the assay on T47D cells (Table 12b, value in bracket), the “selectivity index (IC50 of NIH3T3 divided by IC50 on T47D)” value is given as “(>8.5)”.
In the case of `CC(C)(C)C1CCC2(CC1)OOC1(CCC(OC(=O)NCCC[N+](C)(C)C)CC1)OO2` (stereo not drawn) [Compound 49, 3-((((12-(tert-butyl)-7,8,15,16-tetraoxadispiro[5.2.59.26]hexadecan-3-yl)oxy)carbonyl)amino)-N,N,N-trimethylpropan-1-aminium iodide], the values for the IC50 in the assay on MDA-MB-231 cells (setting [1]), in the assay with NIH3T3 cells (setting [2]) and in the assay with HCT116 cells (setting [5]) were 31.5 µM, above 50 µM and above 50 µM, respectively.
For the compound `CCCC[P+](CCCC)(CCCC)CCCNC(=O)OC1CCC2(CC1)OOC1(CCC(C(C)(C)C)CC1)OO2.[Br-]` (stereo not drawn) [Compound 56, tributyl(3-((((12-(tert-butyl)-7,8,15,16-tetraoxadispiro[5.2.59.26]hexadecan-3-yl)oxy)carbonyl)amino)propyl)phosphonium bromide], the IC50 in the assay with MDA-MB-231 cells (setting [3]) was 0.97 ± 0.1 µM; in the assay on NIH3T3 cells (setting [2]), 11.1 µM; in the assay on NIH3T3 cells (setting [4]) it was 11.1 ± 0.6 µM; in the assay with HCT116 cells (setting [5]) it was 2.7 µM; in the assay on HCT116 cells (setting [6]) it was 2.7 ± 0.3 µM. For the same compound, the “selectivity index (IC50 of NIH3T3 divided by IC50 on MDA-MB-231)” value in the assay on MDA-MB-231 cells (Table 12b, value in bracket) is reported as “(>11.4)”. Besides, the “selectivity index (IC50 of NIH3T3 divided by IC50 on HCT116)” value in the assay on HCT116 cells (Table 12b, value in bracket) is “(>4.1)”.
Turning to `C[n+]1ccc(CNC(=O)OC2CCC3(CC2)OOC2(CCC(C(C)(C)C)CC2)OO3)cc1` (stereo not drawn) [Compound 50, 4-(((((12-(tert-butyl)-7,8,15,16-tetraoxadispiro[5.2.59.26]hexadecan-3-yl)oxy)carbonyl)amino)methyl)-1-methylpyridin-1-ium iodide], the half-inhibitory concentration (IC50) in the assay with MDA-MB-231 cells (setting [1]) was 19.2 µM; in the assay with NIH3T3 cells (setting [2]) it was 44.9 µM; in the assay with HCT116 cells (setting [5]) it was above 25 µM.
`CC(=O)OC[C@H]1O[C@@H](OCCCCNC(=O)OC2CCC3(CC2)OOC2(CCC(C(C)(C)C)CC2)OO3)[C@H](OC(C)=O)[C@@H](OC(C)=O)[C@@H]1OC(C)=O` (stereo partly drawn) [Compound 37h, (2R,3R,4S,5R,6R)-2-(acetoxymethyl)-6-(4-((((12-(tert-butyl)-7,8,15,16-tetraoxadispiro[5.2.59.26]hexadecan-3-yl)oxy)carbonyl)amino)butoxy)tetrahydro-2H-pyran-3,4,5-triyl triacetate]: the IC50 in the assay on MDA-MB-231 cells (MDA-MB-231, 48 h, Table 13, experimental data, MTT, 48 hrs, n = 3, read-out: IC50 MDA-MB-231) came to 0.4 ± 0.05 µM; in the assay with T47D cells (Table 13, experimental data, MTT, 48 hrs, n = 3, read-out: IC50 T47D) it was 0.6 ± 0.1 µM; with NIH3T3 cells (Table 13, experimental data, MTT, 48 hrs, n = 3, read-out: IC50 NIH3T3), 4.6 ± 1.9 µM; in the assay with HCT116 cells (Table 13, experimental data, MTT, 48 hrs, n = 3, read-out: IC50 HCT116), 0.6 ± 0.3 µM. The “selectivity index (IC50 of NIH3T3 divided by IC50 on MDA-MB-231)” value with MDA-MB-231 cells (Table 13, value in bracket) is on record as “(>11)”. Moreover, in the assay with T47D cells (Table 13, value in bracket), the “selectivity index (IC50 of NIH3T3 divided by IC50 on T47D)” value is reported as “(>7)”. For the same compound, the “selectivity index (IC50 of NIH3T3 divided by IC50 on HCT116)” value with HCT116 cells (Table 13, value in bracket) is “(>7)”.
`C[N+](CCCNC(=O)OC1CCC2(CC1)OOC1(CCCCC1)OO2)(Cc1ccccc1)Cc1ccccc1` [Compound 59a, 3-((((7,8,15,16-tetraoxadispiro[5.2.59.26]hexadecan-3-yl)oxy)carbonyl)amino)-N,N-dibenzyl-N-methylpropan-1-aminium iodide]: the IC50 in the assay on MDA-MB-231 cells (setting [1]) came out at 10.4 µM.
Turning to `C#CCCN(CCC[N+](C)(Cc1ccccc1)Cc1ccccc1)C(=O)OC1CCC2(CC1)OOC1(CCC(C(C)(C)C)CC1)OO2.[I-]` (stereo not drawn) [Compound alk-R-48, N,N-dibenzyl-3-(but-3-yn-1-yl(((12-(tert-butyl)-7,8,15,16-tetraoxadispiro[5.2.59.26]hexadecan-3-yl)oxy)carbonyl)amino)-N-methylpropan-1-aminium iodide], the IC50 came to 0.8 ± 0.2 µM in the assay on MDA-MB-231 cells (setting [3]), 10.8 µM with NIH3T3 cells (setting [2]) and 10.8 ± 3.7 µM in the assay with NIH3T3 cells (setting [4]). The “selectivity index (IC50 of NIH3T3 divided by IC50 on MDA-MB-231)” value with MDA-MB-231 cells (Table 12b, value in bracket) is “(>13)”.
Consider `OC1CCC2(CC1)OOC1(CCCCC1)OO2` [Compound 59, 7,8,15,16-tetraoxadispiro[5.2.59.26]hexadecan-3-ol], for which the half-inhibitory concentration (IC50) with MDA-MB-231 cells (setting [1]) is above 50 µM.
In the case of `CC(C)(C)C1CCC2(CC1)OOC1(CCC(OC(=O)NCCC[N+](Cc3ccccc3)(Cc3ccccc3)Cc3ccccc3)CC1)OO2` (stereo not drawn) [Compound 57, N,N,N-tribenzyl-3-((((12-(tert-butyl)-7,8,15,16-tetraoxadispiro[5.2.59.26]hexadecan-3-yl)oxy)carbonyl)amino)propan-1-aminium iodide], the IC50 in the assay on MDA-MB-231 cells (setting [1]) amounted to 2.9 µM; in the assay with NIH3T3 cells (setting [2]), 9.8 µM.
As for `CCCC[N+](C)(CCCC)CCCNC(=O)OC1CCC2(CC1)OOC1(CCC(C(C)(C)C)CC1)OO2.[I-]` (stereo not drawn) [Compound 53, N-butyl-N-(3-((((12-(tert-butyl)-7,8,15,16-tetraoxadispiro[5.2.59.26]hexadecan-3-yl)oxy)carbonyl)amino)propyl)-N-methylbutan-1-aminium iodide], the IC50 in the assay on MDA-MB-231 cells (setting [1]) was below 4 µM; in the assay on MDA-MB-231 cells (setting [3]), 3.7 ± 0.4 µM; with NIH3T3 cells (setting [2]), 33.7 µM; in the assay on NIH3T3 cells (setting [4]) it was 33.7 ± 3.4 µM; with HCT116 cells (setting [5]), 6.7 µM; in the assay with HCT116 cells (setting [6]), 6.7 ± 1.4 µM. For the same compound, the “selectivity index (IC50 of NIH3T3 divided by IC50 on MDA-MB-231)” value in the assay with MDA-MB-231 cells (Table 12b, value in bracket) is on record as “(>9.1)”. Further, in the assay with HCT116 cells (Table 12b, value in bracket), the “selectivity index (IC50 of NIH3T3 divided by IC50 on HCT116)” value was “(>5)”.
Regarding `CC(C)(C)C1CCC2(CC1)OOC1(CCC(OC(=O)NCCC[N+](C)(C)Cc3ccccc3)CC1)OO2` (stereo not drawn) [Compound 54, N-benzyl-3-((((12-(tert-butyl)-7,8,15,16-tetraoxadispiro[5.2.59.26]hexadecan-3-yl)oxy)carbonyl)amino)-N,N-dimethylpropan-1-aminium iodide], the IC50 in the assay with MDA-MB-231 cells (setting [1]) was 14.7 µM; with NIH3T3 cells (setting [2]) it was above 50 µM; with HCT116 cells (setting [5]), 26.2 µM.
`C#CCCNC(=O)OCC(C)(C)C1CCC2(CC1)OOC1(CCC(OC(=O)NCCC[N+](C)(Cc3ccccc3)Cc3ccccc3)CC1)OO2` [Compound alk-L-48, N,N-dibenzyl-3-((((12-(1-((but-3-yn-1-ylcarbamoyl)oxy)-2-methylpropan-2-yl)-7,8,15,16-tetraoxadispiro[5.2.59.26]hexadecan-3-yl)oxy)carbonyl)amino)-N-methylpro pan-1-aminium iodide]: the IC50 was determined as 8.8 µM in the assay with MDA-MB-231 cells (setting [1]) and 18.2 µM with NIH3T3 cells (setting [2]).
`C#CCCN(CCC[P+](c1ccccc1)(c1ccccc1)c1ccccc1)C(=O)OC1CCC2(CC1)OOC1(CCC(C(C)(C)C)CC1)OO2` (stereo not drawn) [Compound alk-R-37b, (3-(but-3-yn-1-yl(((12-(tert-butyl)-7,8,15,16-tetraoxadispiro[5.2.59.26]hexadecan-3-yl)oxy)carbonyl)amino)propyl)triphenylphosphonium bromide]: the figures for the IC50 with MDA-MB-231 cells (setting [1]) and with NIH3T3 cells (setting [2]) were 2.3 µM and 9.7 µM, respectively.
For the compound `CC(C)(C)C1CCC2(CC1)OOC1(CCC(OC(=O)N3CC[N+](C)(C)CC3)CC1)OO2` (stereo not drawn) [Compound 51, 4-(((12-(tert-butyl)-7,8,15,16-tetraoxadispiro[5.2.59.26]hexadecan-3-yl)oxy)carbonyl)-1,1-dimethylpiperazin-1-ium iodide], the IC50 in the assay on MDA-MB-231 cells (setting [1]) was 26.1 µM; in the assay with NIH3T3 cells (setting [2]) it was above 25 µM; with HCT116 cells (setting [5]), above 50 µM.
`O=C(NCCC[P+](c1ccccc1)(c1ccccc1)c1ccccc1)OC1CCC2(CC1)OOC1(CCCCC1)OO2` [Compound 59b, (3-((((7,8,15,16-tetraoxadispiro[5.2.59.26]hexadecan-3-yl)oxy)carbonyl)amino)propyl)triphenylphosphonium bromide]: in the assay on MDA-MB-231 cells (setting [1]), the IC50 came to 1.9 µM.
For `C#CCCNC(=O)OCC(C)(C)C1CCC2(CC1)OOC1(CCC(O)CC1)OO2` [Compound alk-L-37, 2-(12-hydroxy-7,8,15,16-tetraoxadispiro[5.2.59.26]hexadecan-3-yl)-2-methylpropyl but-3-yn-1-ylcarbamate], the half-inhibitory concentration (IC50) in the assay with MDA-MB-231 cells (setting [1]) came to 24.5 µM.
